{
  "source": "ChEMBL document CHEMBL4261607",
  "about": "(Eur J Med Chem, 2018)",
  "key": {"[1]": {"assay": "Cytotoxicity against MDCK cells assessed as reduction in cell viability after 24 hrs by MTT assay", "format": "cell-based, Canis lupus familiaris", "conditions": "dog; call rule not given here"}, "[2]": {"assay": "Cytotoxicity in yeast assessed as reduction in cell proliferation", "format": "organism-based", "conditions": "saccharomyces cerevisiae, yeast cells"}, "Influenza A virus": {"tested_on": "Influenza A virus", "assay": "Antiviral activity against Influenza A virus H5N1 infected in MDCK cells after 2 to 3 days by crystal violet staining-based plaque reduction assay", "format": "functional, organism-based"}, "[3]": {"target": "Matrix protein 2 (Influenza A virus (A/Udorn/307/1972(H3N2)), UniProt P0DOF8)", "sequence (P0DOF8 whole entry)": "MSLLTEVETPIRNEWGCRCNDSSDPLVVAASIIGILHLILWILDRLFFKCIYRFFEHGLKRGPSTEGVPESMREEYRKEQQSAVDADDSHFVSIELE"}},
  "data": [
    {"molecule": "N#CCCN(Cc1cccs1)S(=O)(=O)c1ccc(Br)cc1", "values": [
      {"measurement": "CC50 at 24 h", "setting": "[1]", "value": "> 173", "unit": "µM"},
      {"measurement": "CC50", "setting": "[2]", "value": "> 174", "unit": "µM"}
    ]},
    {"molecule": "CCCN(Cc1cccs1)S(=O)(=O)c1ccc(Br)cc1", "values": [
      {"measurement": "CC50 at 24 h", "setting": "[1]", "value": "> 178", "unit": "µM"},
      {"measurement": "CC50", "setting": "[2]", "value": "> 179", "unit": "µM"}
    ]},
    {"molecule": "N#CCCN(Cc1cccs1)S(=O)(=O)c1ccc(N)cc1", "values": [
      {"measurement": "CC50 at 24 h", "setting": "[1]", "value": "> 208", "unit": "µM"},
      {"measurement": "CC50", "setting": "[2]", "value": "> 179", "unit": "µM"}
    ]},
    {"molecule": "Cc1cccc(S(=O)(=O)N(CCC#N)Cc2ccco2)c1", "values": [
      {"measurement": "CC50 at 24 h", "setting": "[1]", "value": "> 219", "unit": "µM"},
      {"measurement": "CC50", "setting": "[2]", "value": "> 220", "unit": "µM"}
    ]},
    {"molecule": "NC12CC3CC(CC(C3)C1)C2", "note": "[AMANTADINE]", "values": [
      {"measurement": "CC50 at 24 h", "setting": "[1]", "value": "> 441", "unit": "µM"},
      {"measurement": "CC50", "setting": "[2]", "value": "> 443", "unit": "µM"}
    ]},
    {"molecule": "N#CCCN(Cc1ccco1)S(=O)(=O)c1ccc(Br)cc1", "values": [
      {"measurement": "CC50 at 24 h", "setting": "[1]", "value": "> 181", "unit": "µM"},
      {"measurement": "CC50", "setting": "[2]", "value": "> 182", "unit": "µM"}
    ]},
    {"molecule": "Cc1ccc(S(=O)(=O)N(CCC#N)Cc2ccco2)cc1", "values": [
      {"measurement": "CC50 at 24 h", "setting": "[1]", "value": "> 219", "unit": "µM"},
      {"measurement": "CC50", "setting": "[2]", "value": "> 220", "unit": "µM"}
    ]},
    {"molecule": "N#CCCN(Cc1ccc[nH]1)S(=O)(=O)c1ccc(Br)cc1", "values": [
      {"measurement": "CC50 at 24 h", "setting": "[1]", "value": "> 181", "unit": "µM"},
      {"measurement": "CC50", "setting": "[2]", "value": "> 182", "unit": "µM"}
    ]},
    {"molecule": "N#CCCN(Cc1cccs1)S(=O)(=O)c1cccc(F)c1", "values": [
      {"measurement": "CC50 at 24 h", "setting": "[1]", "value": "> 206", "unit": "µM"},
      {"measurement": "CC50", "setting": "[2]", "value": "> 206", "unit": "µM"}
    ]},
    {"molecule": "N#CCCN(Cc1ccccc1)S(=O)(=O)c1ccc(F)cc1", "values": [
      {"measurement": "CC50 at 24 h", "setting": "[1]", "value": "> 210", "unit": "µM"},
      {"measurement": "CC50", "setting": "[2]", "value": "> 210", "unit": "µM"}
    ]},
    {"molecule": "Cc1cc(C(=O)NCCSCc2ccc([N+](=O)[O-])cc2)c(C)o1", "values": [
      {"measurement": "EC50", "setting": "Influenza A virus", "value": 1250, "unit": "nM"}
    ]},
    {"molecule": "N#CCCN(Cc1cccs1)S(=O)(=O)c1ccc(C(F)(F)F)cc1", "values": [
      {"measurement": "CC50 at 24 h", "setting": "[1]", "value": "> 178", "unit": "µM"},
      {"measurement": "CC50", "setting": "[2]", "value": "> 179", "unit": "µM"}
    ]},
    {"molecule": "O=C(O)CCN(Cc1cccs1)S(=O)(=O)c1ccc(Br)cc1", "values": [
      {"measurement": "CC50 at 24 h", "setting": "[1]", "value": "> 165", "unit": "µM"},
      {"measurement": "CC50", "setting": "[2]", "value": "> 166", "unit": "µM"}
    ]},
    {"molecule": "N#CCCN(Cc1cccs1)S(=O)(=O)c1ccc([N+](=O)[O-])cc1", "values": [
      {"measurement": "CC50 at 24 h", "setting": "[1]", "value": "> 190", "unit": "µM"},
      {"measurement": "CC50", "setting": "[2]", "value": "> 191", "unit": "µM"}
    ]},
    {"molecule": "N#CCCN(Cc1cccs1)S(=O)(=O)c1ccc(F)cc1", "values": [
      {"measurement": "CC50 at 24 h", "setting": "[1]", "value": "> 206", "unit": "µM"},
      {"measurement": "CC50", "setting": "[2]", "value": "> 206", "unit": "µM"}
    ]},
    {"molecule": "N#CCCN(Cc1cccs1)S(=O)(=O)c1ccc(Cl)cc1", "values": [
      {"measurement": "CC50 at 24 h", "setting": "[1]", "value": "> 196", "unit": "µM"},
      {"measurement": "CC50", "setting": "[2]", "value": "> 197", "unit": "µM"}
    ]},
    {"molecule": "O=S(=O)(c1ccc(Br)cc1)N(Cc1cccs1)Cc1cccs1", "values": [
      {"measurement": "CC50 at 24 h", "setting": "[1]", "value": 81, "unit": "µM"},
      {"measurement": "CC50", "setting": "[2]", "value": "> 156", "unit": "µM"}
    ]},
    {"molecule": "N#CCCN(Cc1ccco1)S(=O)(=O)c1ccc(Cl)cc1", "values": [
      {"measurement": "CC50 at 24 h", "setting": "[1]", "value": "> 205", "unit": "µM"},
      {"measurement": "CC50", "setting": "[2]", "value": "> 206", "unit": "µM"}
    ]},
    {"molecule": "COc1ccc(S(=O)(=O)N(CCC#N)Cc2cccs2)cc1", "values": [
      {"measurement": "CC50 at 24 h", "setting": "[1]", "value": "> 198", "unit": "µM"},
      {"measurement": "CC50", "setting": "[2]", "value": "> 199", "unit": "µM"}
    ]},
    {"molecule": "N#CCCN(Cc1ccco1)S(=O)(=O)c1ccc(C(F)(F)F)cc1", "values": [
      {"measurement": "CC50 at 24 h", "setting": "[1]", "value": "> 186", "unit": "µM"},
      {"measurement": "CC50", "setting": "[2]", "value": "> 187", "unit": "µM"}
    ]},
    {"molecule": "N#CCCN(Cc1ccco1)S(=O)(=O)c1ccc(F)cc1", "values": [
      {"measurement": "CC50 at 24 h", "setting": "[1]", "value": "216 to 227", "unit": "µM"},
      {"measurement": "CC50", "setting": "[2]", "value": "216 to 217", "unit": "µM"}
    ]},
    {"molecule": "N#CCCN(Cc1ccco1)S(=O)(=O)c1ccc(C#N)cc1", "values": [
      {"measurement": "CC50 at 24 h", "setting": "[1]", "value": "> 212", "unit": "µM"},
      {"measurement": "CC50", "setting": "[2]", "value": "> 212", "unit": "µM"}
    ]},
    {"molecule": "N#CCCN(Cc1cccs1)S(=O)(=O)c1ccccc1F", "values": [
      {"measurement": "CC50 at 24 h", "setting": "[1]", "value": "> 206", "unit": "µM"},
      {"measurement": "CC50", "setting": "[2]", "value": "> 206", "unit": "µM"}
    ]},
    {"molecule": "CC(=O)c1ccc(S(=O)(=O)N(CCC#N)Cc2cccs2)cc1", "values": [
      {"measurement": "CC50 at 24 h", "setting": "[1]", "value": "> 191", "unit": "µM"},
      {"measurement": "CC50", "setting": "[2]", "value": "> 192", "unit": "µM"}
    ]},
    {"molecule": "CCOC(=O)CCN(Cc1cccs1)S(=O)(=O)c1ccc(Br)cc1", "values": [
      {"measurement": "CC50 at 24 h", "setting": "[1]", "value": "> 154", "unit": "µM"},
      {"measurement": "CC50", "setting": "[2]", "value": "> 155", "unit": "µM"}
    ]},
    {"molecule": "Cc1ccc(S(=O)(=O)N(CCC#N)Cc2cccs2)cc1", "values": [
      {"measurement": "CC50 at 24 h", "setting": "[1]", "value": 127, "unit": "µM"},
      {"measurement": "CC50", "setting": "[2]", "value": "> 209", "unit": "µM"}
    ]},
    {"molecule": "COc1ccc(S(=O)(=O)N(CCC#N)Cc2ccco2)cc1", "values": [
      {"measurement": "CC50 at 24 h", "setting": "[1]", "value": "> 208", "unit": "µM"},
      {"measurement": "CC50", "setting": "[2]", "value": "> 209", "unit": "µM"}
    ]},
    {"molecule": "N#CCCN(Cc1cccs1)S(=O)(=O)c1ccc(C#N)cc1", "values": [
      {"measurement": "CC50 at 24 h", "setting": "[1]", "value": "> 201", "unit": "µM"},
      {"measurement": "CC50", "setting": "[2]", "value": "> 202", "unit": "µM"}
    ]},
    {"molecule": "CCCN(CCC#N)S(=O)(=O)c1ccc(Br)cc1", "values": [
      {"measurement": "CC50 at 24 h", "setting": "[1]", "value": 116, "unit": "µM"},
      {"measurement": "CC50", "setting": "[2]", "value": "> 202", "unit": "µM"}
    ]},
    {"molecule": "CCOC(=O)C1=C[C@@H](OC(CC)CC)[C@H](NC(C)=O)[C@@H](N)C1", "note": "[OSELTAMIVIR]", "values": [
      {"measurement": "EC50", "setting": "[3]", "value": "Not Active"},
      {"measurement": "CC50", "setting": "[2]", "value": "> 214", "unit": "µM"}
    ]}
  ]
}
